{
  "source": "patent US6846845B2",
  "about": "“Heat shock protein inducer” (Eisai Co., Ltd., priority 2002, dated 2005)",
  "type_in_all_cases": "in vivo, rat",
  "key": {"PKCδ": {"test_system": "PKCδ", "assay": "Translocation of PKCδ in particulate and cytosolic heart fractions (Western immunoblotting)", "details": "24 h after GGA 200 mg/kg oral or vehicle; chelerythrine 5 mg/kg i.v. pretreatment, FIG. 10"}, "isolated perfused heart": {"test_system": "isolated perfused heart", "assay": "Isolated perfused heart experiments (Langendorff, no-flow global ischemia/reperfusion), Example 1", "details": "for amount of creatine kinase (CK) released during reperfusion versus Control Group: 30 min reperfusion, FIG. 6", "method": "As mentioned above, 24 hours after administration of 200 mg/kg of GGA or the vehicle, rats were heparinized (500 IU/kg, i.p.) and anesthetized with pentobarbital (50 mg/kg, i.p.).\nEach heart was isolated and reperfused using the Langendorff method with Krebs-Henseleit buffer (pH 7.4, [in mM] 118 NaCl, 4.7 KCl, 2.5 CaCl2, 1.2 MgSO4, 1.2 KH2PO4, 25.0 Na2HCO3, 11.0 glucose) equilibrated with a 95% O2, 5% CO2 gas mixture at 36.5° C., 75 mmHg (1.0×10^4 Pa).\nA water-filled latex balloon was inserted through the mitral orifice into the left ventricle, and the left ventricular end diastolic pressure (LVEDP) was adjusted to 0-5 mmHg (0-667 Pa). During the first 10 minutes of constant pressure reperfusion, the perfusion flow rate was determined for each heart, and the hearts were then perfused at a determined perfusion rate using a microtube pump, during which time each heart was covered with water-jacketed glassware and humidity was maintained at 90% or more.\nNormothermic no-flow global ischemia was performed for 20, 40 and 60 minutes, followed by reperfusion for 30 minutes. The coronary effluent from the 30-minute reperfusion period was collected for measurement of released creatine kinase (CK). The ratio of released CK to heart weight was analyzed by unpaired t-test.\nThe peak position and negative first derivaties of left ventricular pressure (dP/dt max and dP/dt min) were monitored using a pressure transducer. Left ventricular developed pressure (LVDP) was defined as the difference between left ventricular systolic and diastolic pressure. Coronary perfusion pressure (CPP) was calculated as the hydraulic pressure measured at the level of aortic cannulation. Changes in LVDP, CPP and dP/dt were analyzed by two-way analysis of variance (ANOVA), followed by the Bonferroni/Dunn test.\nThe LVDP, CPP and electrocardiogram were continuously recorded on a polygraph recorder (WS-681G, Nihon Koden, Tokyo), and stored on a PCM data recorder (RD-111T, TEAC, Tokyo) for later analysis."}, "[1]": {"assay": "Observation of abnormalities (side-effects) during oral administration", "details": "rats, oral 50, 100, 200 and 400 mg/kg", "method": "An emulsion of 100% by weight of geranylgeranylacetone (GGA) with 5% by weight of gum arabic and 0.008% by weight of tocopherol was given orally to the rats described above. The oral dosages were 50 mg/kg, 100 mg/kg, 200 mg/kg and 400 mg/kg (GGA groups). […] The vehicle was administered orally to the Control Group."}, "HSP70": {"test_system": "HSP70", "assay": "Effect of chelerythrine pretreatment on GGA-induced HSP70 expression in the heart (Western immunoblotting), Example 2", "details": "24 h after GGA 200 mg/kg oral or vehicle; chelerythrine 5 mg/kg i.v. pretreatment, FIG. 8", "method": "Male Sprague-Dawley rats (220-250 g) were used. GGA, as an emulsion with 5% gum arabic and 0.008% tocopherol, was given orally at a dose of 200 mg/kg. Rats were classified into 4 groups. FIG. 7 is a diagrammatic representation of experimental protocol. […] Twenty-four hours after oral administration of GGA or vehicle, rats were anesthetized (sodium pentobarbital, 50 mg/kg IP) and heparinized (500 IU/kg IP). Hearts were excised, immediately frozen in liquid nitrogen, and stored at −70° C. until use for Western blot analysis (n=4 for each group). […]\nTo analyze the expression of HSP70, the frozen heart samples were homogenized with SDS sample buffer (pH 6.8, 20% glycerol, 6% SDS, 0.12M Tris), centrifuged and boiled (Maloyan A, Palmon A, Horowitz M. Heat acclimation increases the basal HSP70 level and alters its production dynamics during heat stress. Am J Physiol. 1999; 276:R1506-R1515.). […] The total protein concentration of heart was quantified by the Bradford method (Bradford MM. A rapid and sensitive method for quantitation of microgram quantities of protein utilizing the principle of protein-dye binding. Anal. Biochem. 1976;72:248-254). […] The proteins were detected by ECL with exposure to Hyperfilm (Amersham Pharmacia). The amount of protein on the immunoblots was quantified using National Institutes of Health image software. […]"}},
  "data": [
    {"smiles": "CC(=O)CCC=C(C)CCC=C(C)CCC=C(C)CCC=C(C)C", "note": "[GGA, 6, 10, 14, 18-tetramethyl-5,9, 13, 17-nonadecatetraen-2-one]", "values": [
      {"measurement": "PKCδ in the particulate fraction / particulate/cytosol ratio versus CNT group", "setting": "PKCδ", "result": "significant increase"},
      {"measurement": "LVDP and dP/dt during reperfusion versus Control Group", "setting": "isolated perfused heart; 24 h after oral 200 mg/kg, printed 'after about 20-40 minutes of reperfusion', FIG. 5", "result": "remarkably better"},
      {"measurement": "functional recovery (LVDP, dP/dt) versus Control Group", "setting": "isolated perfused heart; 24 h after oral 200 mg/kg, printed 'after about 60 minutes of reperfusion', FIG. 5", "result": "no great difference"},
      {"measurement": "amount of creatine kinase (CK) released during reperfusion versus Control Group", "setting": "isolated perfused heart; ischemic period 20 or 40 minutes", "result": "much less"},
      {"measurement": "amount of creatine kinase (CK) released during reperfusion versus Control Group", "setting": "isolated perfused heart; ischemic period 60 minutes", "result": "no great difference"},
      {"measurement": "abnormalities (side-effects) during administration", "setting": "[1]", "result": "No particular abnormalities (side-effects) were observed"},
      {"measurement": "HSP70 expression in the heart (relative density to control group)", "setting": "HSP70", "result": "increased"}
    ]}
  ]
}
